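Where inhibition never reached the appropriate level, the endpoint shown equals the highest concentration tested. Otherwise, values were interpolated linearly from a five-concentration, 48-hour dose response in 96-well plates. Abbreviation: GI50, concentration required for 50% inhibition of growth. TGI marks complete inhibition of growth.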
Experiments:
Test in all cases: DTP human tumour cell line panel, 48 h
SR leukemia = tested on: SR leukemia
NCI-H522 lung = tested on: NCI-H522 lung
K-562 leukemia = tested on: K-562 leukemia
OVCAR-8 ovarian = tested on: OVCAR-8 ovarian
OVCAR-5 ovarian = tested on: OVCAR-5 ovarian
OVCAR-4 ovarian = tested on: OVCAR-4 ovarian
MOLT-4 leukemia = tested on: MOLT-4 leukemia
HL-60(TB) leukemia = tested on: HL-60(TB) leukemia
NCI-H226 lung = tested on: NCI-H226 lung
MCF7 breast = tested on: MCF7 breast

Row | SMILES | GI50 (SR leukemia) [µM] | TGI (SR leukemia) [µM] | GI50 (NCI-H522 lung) [µM] | TGI (NCI-H522 lung) [µM] | GI50 (K-562 leukemia) [µM] | TGI (K-562 leukemia) [µM] | GI50 (OVCAR-8 ovarian) [µM] | TGI (OVCAR-8 ovarian) [µM] | GI50 (OVCAR-5 ovarian) [µM] | TGI (OVCAR-5 ovarian) [µM] | GI50 (OVCAR-4 ovarian) [µM] | TGI (OVCAR-4 ovarian) [µM] | GI50 (MOLT-4 leukemia) [µM] | TGI (MOLT-4 leukemia) [µM] | GI50 (HL-60(TB) leukemia) [µM] | TGI (HL-60(TB) leukemia) [µM] | GI50 (NCI-H226 lung) [µM] | TGI (NCI-H226 lung) [µM] | GI50 (MCF7 breast) [µM] | TGI (MCF7 breast) [µM]
1 | Cn1c(=O)c2c(nc(Nc3cc(=O)[nH]c(=O)[nH]3)n2Cc2ccccc2)n(C)c1=O | > 100 | > 100 | > 100 | > 100 | 82.5 | > 100 | > 100 | > 100 | > 100 | > 100 | 46.9 | > 100 | > 100 | > 100 | > 100 | > 100 | > 100 | > 100 | > 100 | > 100
2 | Oc1[nH]c2ccccc2c1N=Nc1ccccc1Cl |  | 34.3 |  | > 100 |  | > 100 |  | > 64.7 |  | > 100 |  | 14.6 |  | > 100 |  | > 100 |  | > 100 |  | > 100
3 | CNCCCn1cc(C2=C(c3cn(C)c4ccccc34)C(=O)NC2=O)c2ccccc21 | 3.94 | 16.2 | 4.01 | 8.71 | 3.46 | 14.2 | 4.99 | 12.6 | 7.65 | 20.7 | 3.06 | 14.1 | 5 | 19.1 | 5.55 | 13.5 | 6.2 | 22.8 | 2.74 | 6.93
4 | NC(=NCCCOc1ccc(Cl)cc1)Nc1ccc(C(F)(F)F)cc1 | 1.77 | 5.95 | 1.75 | 4.41 | 1.76 | 5.6 | 2.18 | 6.05 | 2.67 | 13.7 | 2.15 | 8.01 | 1.41 | 5 | 1.59 | 3.77 | 3.87 | 19.2 | 1.72 | 4.85
5 | Clc1coc2nc3ccccc3c(Nc3ccc4c(c3)OCO4)c12 | 0.201 | 0.938 | 2.17 | > 23.3 | 0.498 |  | 2.33 | 21.2 | 6.99 | > 100 | 22.8 | > 100 | 0.803 | 22 | 0.808 | 8.82 | 2.35 | > 26.2 | 1.81 | > 100
6 | COc1ccc2c(c1)C(C)Cc1c(Cl)ncnc1N2C (centres undefined) | 0.45 | > 19.8 | 1.41 | 4.02 | 2.08 | > 100 | 0.463 | 25.2 | 0.643 | > 100 | 0.395 | > 100 | 1.17 | > 22.6 | 2 | 7.06 | 0.213 | 0.481 | 0.328 | > 21.9
7 | O=C1NC(=Nc2ccccc2)S/C1=C\c1ccc2ncccc2c1 | 0.64 | > 25 | > 12.3 | > 25 | 0.846 | > 25 | > 25 | > 25 | > 25 | > 25 | > 25 | > 25 | > 25 | > 25 | 1.42 | > 25 | > 25 | > 25 | 0.953 | > 25
8 | COC(=O)/C=C/c1cc(O)c2oc(-c3ccc(O)c(O)c3)c(C(=O)OC)c2c1 | 0.039 | > 24.3 | 0.0472 | 4.72 | 0.0511 | 26.9 | 0.521 | 13 | 3.56 | 16.5 | 0.901 | 12 | 0.462 | 7.11 | 0.14 | 1.52 | 3.85 | 22.3 | 0.286 | 9.75
9 | O=C(CCCn1ccnc1[N+](=O)[O-])NCCn1cncc1[N+](=O)[O-] |  | > 100 |  | > 100 |  | > 100 |  | > 100 |  | > 100 |  | > 100 |  | > 100 |  | > 100 |  | > 100 |  | > 100
10 | Cc1nnc(S(=O)(=O)c2ccc(N=Nc3c(N)nc(N)nc3N)cc2)s1 |  | > 100 |  | > 100 |  | > 100 |  | > 100 |  | > 100 |  | > 100 |  | > 100 |  | 97.8 |  | > 100 |  | > 100
11 | COc1cc(C(=O)c2cc(C)c3[nH]c4ccc(Cl)cc4c3c2C)cc(OC)c1OC | 0.0493 | 97.1 | 0.0291 | 1.95 | 0.035 | > 100 | 0.0439 | 10.7 | 0.0635 | 18 | 1.16 | 27.2 | 0.046 | > 47.4 | 0.0279 | 0.0901 | 0.679 | 18.3 | 0.0352 | 13.2
12 | COc1ccc(N2C(=O)C(c3ccccc3)(c3ccccc3)C23C(=O)N(C)c2ccccc23)cc1 (centres undefined) | > 100 | > 100 | > 100 | > 100 | > 100 | > 100 | > 100 | > 100 | > 100 | > 100 | > 100 | > 100 | > 100 | > 100 | > 100 | > 100 | > 100 | > 100 | > 100 | > 100
13 | Cc1ccc(C(SCC(N)C(=O)O)(c2ccccc2)c2ccc(C)cc2)cc1 (centres undefined) | 0.204 | 4.33 | 0.132 | 2.58 | 0.266 | > 35.2 | 0.433 | 44.2 | 1.11 | 24.4 | 13.4 | 72.7 | 2.7 | > 48.2 | 0.235 | 0.588 | 3.02 | 25.8 | 0.0524 | 15.4
14 | COc1ncnc(C2CC2)c1-c1ncc2cnn(Cc3ccc(-c4nc(C(F)(F)F)cn4C(C)C)cc3)c2n1 | 19.7 | > 100 | 8.52 | 48.3 | 13.9 | > 100 | 21 | > 100 | 26.2 | > 100 | 14.2 | 75.6 | 17.5 | > 100 | 31 | > 100 | 9.08 | 50.7 | 17.3 | 57.4

Source: PubChem BioAssay (NCI)
